Source: patent publication US10760110B2, “Antibiotic testing and screening system” (priority 2017, dated 2020)
In brackets after ≈: the same amount, converted by molar mass. Like-named read-outs stand apart in the source and are kept apart here.

How the values were obtained:
Settings in all cases: Klebsiella pneumoniae
[1] = test system: K. pneumoniae NVT1001 ΔramRΔompK35/36 mutant and its revertants; assay: Etest MIC, ΔramRΔompK35/36 mutant and its revertants (Table 7); type: cell-based
[2] = test system: K. pneumoniae NVT1001 and its ΔompK35/36 and/or ΔramR mutants; assay: Etest MIC, OmpK35/36 loss and AcrAB-TolC overexpression (ΔramR) strains (Table 6); type: cell-based, Klebsiella pneumoniae
Summary of the method: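 MICs were read by Etest strip following the manufacturer's instructions, and values falling between standard two-fold dilutions were rounded up to the next two-fold step. Ceftazidime and cefotaxime were also tested by CLSI broth microdilution and interpreted against CLSI 2017 breakpoints; cephalothin used CLSI 2015 and moxifloxacin EUCAST 2017.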

[3] = test system: K. pneumoniae NVT1001 strains with carbapenemase plasmids; assay: Etest MIC of β-lactams, OmpK35/36 loss, ΔramR and/or carbapenemase (Table 9); type: cell-based, Klebsiella pneumoniae
Summary of the method: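 Etest MICs, with values between standard dilutions rounded up to the next two-fold step, were measured in K. pneumoniae NVT1001 carrying PCR-cloned resistance genes on pACYC177 or pACYC184 plasmids. Interpretation used CLSI 2017 breakpoints, CLSI 2015 for cephalothin and EUCAST 2017 for moxifloxacin. For the blaOXA-48 strain, ceftazidime and cefotaxime were additionally tested by CLSI broth microdilution.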

For C[C@@H](O)[C@H]1C(=O)N2C(C(=O)O)=C(SCCN=CN)C[C@H]12 [Imipenem], the MIC ([1]; ΔramRΔompK35/36::ompK35/36 revertant) was 0.25 µg/mL, the MIC ([1]; ΔramRΔompK35/36::ompK35 revertant) was 0.25 µg/mL and the MIC ([1]; ΔramRΔompK35/36::ompK36 revertant) was 0.25 µg/mL. The MIC ([1]; ΔramRΔompK35/36::ramR revertant) was 0.5 µg/mL, the MIC ([1]; ΔramRΔompK35/36::ramR::ompK35/36 revertant) was 0.5 µg/mL and the MIC ([1]; ΔramRΔompK35/36::ramR::ompK35 revertant) was 0.25 µg/mL. The MIC ([1]; ΔramRΔompK35/36::ramR::ompK36 revertant) was 0.25 µg/mL, the MIC ([1]; ΔramRΔompK35/36 mutant) was 0.5 µg/mL and the MIC ([2]; WT, NVT1001, read-out: MIC) was 0.5 µg/mL (≈ 1.67 µM). It also gave an MIC ([2]; Δ35, ΔompK35 mutant) of 0.5 µg/mL (≈ 1.67 µM), an MIC ([2]; Δ35/36, ΔompK35/36 mutant) of 0.5 µg/mL (≈ 1.67 µM) and an MIC ([2]; Δ36, ΔompK36 mutant) of 0.5 µg/mL (≈ 1.67 µM). The MIC ([2]; ΔramR mutant) was 0.25 µg/mL (≈ 0.835 µM), the MIC ([2]; ΔramRΔ35, ΔramRΔompK35 mutant) was 0.25 µg/mL (≈ 0.835 µM) and the MIC ([2]; ΔramRΔ35/36, ΔramRΔompK35/36 mutant) was 0.5 µg/mL (≈ 1.67 µM). It also gave an MIC ([2]; ΔramRΔ36, ΔramRΔompK36 mutant) of 0.5 µg/mL (≈ 1.67 µM), an MIC ([3]; IMP-8 on pACYC177, WT (NVT1001), read-out: MIC) of 4 µg/mL and an MIC ([3]; IMP-8 on pACYC177, Δ35 (ΔompK35 mutant)) of 4 µg/mL. The MIC ([3]; IMP-8 on pACYC177, Δ35/36 (ΔompK35/36 mutant)) was greater than 32 µg/mL, the MIC ([3]; IMP-8 on pACYC177, Δ36 (ΔompK36 mutant)) was 8 µg/mL and the MIC ([3]; IMP-8 on pACYC177, ΔramR mutant) was 4 µg/mL. For the same compound, the MIC ([3]; IMP-8 on pACYC177, ΔramRΔ35 (ΔramRΔompK35 mutant)) was 4 µg/mL, the MIC ([3]; IMP-8 on pACYC177, ΔramRΔ35/36 (ΔramRΔompK35/36 mutant)) was greater than 32 µg/mL and the MIC ([3]; IMP-8 on pACYC177, ΔramRΔ36 (ΔramRΔompK36 mutant)) was greater than 32 µg/mL. For the same compound, the MIC ([3]; KPC-2 on pACYC177, WT (NVT1001), read-out: MIC) was greater than 32 µg/mL, the MIC ([3]; KPC-2 on pACYC177, Δ35 (ΔompK35 mutant)) was greater than 32 µg/mL and the MIC ([3]; KPC-2 on pACYC177, Δ35/36 (ΔompK35/36 mutant)) was greater than 32 µg/mL. For the same compound, the MIC ([3]; KPC-2 on pACYC177, Δ36 (ΔompK36 mutant)) was greater than 32 µg/mL, the MIC ([3]; KPC-2 on pACYC177, ΔramR mutant) was greater than 32 µg/mL and the MIC ([3]; KPC-2 on pACYC177, ΔramRΔ35 (ΔramRΔompK35 mutant)) was greater than 32 µg/mL. For the same compound, the MIC ([3]; KPC-2 on pACYC177, ΔramRΔ35/36 (ΔramRΔompK35/36 mutant)) was greater than 32 µg/mL, the MIC ([3]; KPC-2 on pACYC177, ΔramRΔ36 (ΔramRΔompK36 mutant)) was greater than 32 µg/mL and the MIC ([3]; KPC-3 on pACYC177, WT (NVT1001), read-out: MIC) was 32 µg/mL. It also gave an MIC ([3]; KPC-3 on pACYC177, Δ35 (ΔompK35 mutant)) greater than 32 µg/mL, an MIC ([3]; KPC-3 on pACYC177, Δ35/36 (ΔompK35/36 mutant)) greater than 32 µg/mL and an MIC ([3]; KPC-3 on pACYC177, Δ36 (ΔompK36 mutant)) greater than 32 µg/mL. For the same compound, the MIC ([3]; KPC-3 on pACYC177, ΔramR mutant) was 32 µg/mL, the MIC ([3]; KPC-3 on pACYC177, ΔramRΔ35 (ΔramRΔompK35 mutant)) was 32 µg/mL and the MIC ([3]; KPC-3 on pACYC177, ΔramRΔ35/36 (ΔramRΔompK35/36 mutant)) was greater than 32 µg/mL. It also gave an MIC ([3]; KPC-3 on pACYC177, ΔramRΔ36 (ΔramRΔompK36 mutant)) greater than 32 µg/mL, an MIC ([3]; NDM-1 on pACYC177, WT (NVT1001), read-out: MIC) greater than 32 µg/mL and an MIC ([3]; NDM-1 on pACYC177, Δ35 (ΔompK35 mutant)) greater than 32 µg/mL. For the same compound, the MIC ([3]; NDM-1 on pACYC177, Δ35/36 (ΔompK35/36 mutant)) was greater than 32 µg/mL, the MIC ([3]; NDM-1 on pACYC177, Δ36 (ΔompK36 mutant)) was greater than 32 µg/mL and the MIC ([3]; NDM-1 on pACYC177, ΔramR mutant) was greater than 32 µg/mL. It also gave an MIC ([3]; NDM-1 on pACYC177, ΔramRΔ35 (ΔramRΔompK35 mutant)) greater than 32 µg/mL, an MIC ([3]; NDM-1 on pACYC177, ΔramRΔ35/36 (ΔramRΔompK35/36 mutant)) greater than 32 µg/mL and an MIC ([3]; NDM-1 on pACYC177, ΔramRΔ36 (ΔramRΔompK36 mutant)) greater than 32 µg/mL. For the same compound, the MIC ([3]; OXA-48 on pACYC177, WT (NVT1001), read-out: MIC) was 4 µg/mL, the MIC ([3]; OXA-48 on pACYC177, Δ35 (ΔompK35 mutant)) was 4 µg/mL and the MIC ([3]; OXA-48 on pACYC177, Δ35/36 (ΔompK35/36 mutant)) was greater than 32 µg/mL. It also gave an MIC ([3]; OXA-48 on pACYC177, Δ36 (ΔompK36 mutant)) of 8 µg/mL, an MIC ([3]; OXA-48 on pACYC177, ΔramR mutant) of 4 µg/mL and an MIC ([3]; OXA-48 on pACYC177, ΔramRΔ35 (ΔramRΔompK35 mutant)) of 4 µg/mL. The MIC ([3]; OXA-48 on pACYC177, ΔramRΔ35/36 (ΔramRΔompK35/36 mutant)) was greater than 32 µg/mL, the MIC ([3]; OXA-48 on pACYC177, ΔramRΔ36 (ΔramRΔompK36 mutant)) was greater than 32 µg/mL and the MIC ([3]; VIM-1 on pACYC177, WT (NVT1001), read-out: MIC) was 16 µg/mL. It also gave an MIC ([3]; VIM-1 on pACYC177, Δ35 (ΔompK35 mutant)) of 32 µg/mL, an MIC ([3]; VIM-1 on pACYC177, Δ35/36 (ΔompK35/36 mutant)) greater than 32 µg/mL and an MIC ([3]; VIM-1 on pACYC177, Δ36 (ΔompK36 mutant)) greater than 32 µg/mL. For the same compound, the MIC ([3]; VIM-1 on pACYC177, ΔramR mutant) was 16 µg/mL, the MIC ([3]; VIM-1 on pACYC177, ΔramRΔ35 (ΔramRΔompK35 mutant)) was 16 µg/mL and the MIC ([3]; VIM-1 on pACYC177, ΔramRΔ35/36 (ΔramRΔompK35/36 mutant)) was greater than 32 µg/mL. It also gave an MIC ([3]; VIM-1 on pACYC177, ΔramRΔ36 (ΔramRΔompK36 mutant)) greater than 32 µg/mL, an MIC ([3]; no supplemental plasmid, WT (NVT1001), read-out: MIC) of 0.5 µg/mL and an MIC ([3]; no supplemental plasmid, Δ35 (ΔompK35 mutant)) of 0.5 µg/mL. It also gave an MIC ([3]; no supplemental plasmid, Δ35/36 (ΔompK35/36 mutant)) of 0.5 µg/mL, an MIC ([3]; no supplemental plasmid, Δ36 (ΔompK36 mutant)) of 0.5 µg/mL and an MIC ([3]; no supplemental plasmid, ΔramR mutant) of 0.25 µg/mL. The MIC ([3]; no supplemental plasmid, ΔramRΔ35 (ΔramRΔompK35 mutant)) was 0.25 µg/mL, the MIC ([3]; no supplemental plasmid, ΔramRΔ35/36 (ΔramRΔompK35/36 mutant)) was 0.5 µg/mL and the MIC ([3]; no supplemental plasmid, ΔramRΔ36 (ΔramRΔompK36 mutant)) was 0.5 µg/mL.
